Like-named read-outs stand apart in the source and are kept apart here.
Tests used:
[1] = test system: CYP3A4 enzyme; experiment: Liver injury simulation in 3D co-cultures with HepaRG: CYP3A4 enzyme activity and albumin production; details: hydrogels and NP-hydrogels, K-HSC or LX-2 with HepaRG 1:1
[2] = test system: primary human hepatic cells; experiment: K-HSC and primary human hepatic cells 1:1 in hydrogel or nanoparticle-hydrogel, TGF-β1 cycles, albumin; format: cell-based; details: 10 ng/mL TGF-β1, 3 cycles, 24-day culture, K-HSC with primary human hepatic cells
Description: The K-HSC prepared in Example 1 was encapsulated with primary human hepatic cells (PHHs, Corning, USA) at a ratio of 1:1 in 4.5% polyethylene glycol/hyaluronic acid/RGD hydrogel using photopolymerization as described in Example 4. The cells frozen with nitrogen were thawed using recovery media (ThermoFisher, USA) and centrifuged, and then the number of cells were measured, and the cells were encapsulated with the K-HSC in a hydrogel, and then cultured for one day in a primary human hepatocyte plating medium (ThermoFisher, USA) containing 10% bovine serum. The medium was converted to a dedicated serum-free medium for primary human hepatic cells (Corning, USA), after 5 days, TGF-β1 inducing fibrosis, was added for 24 hours at a concentration of 10 ng/mL, and then converted back to a serum-free medium to which the TGF-β1 was not added in the following day, 3 cycles were performed, and the appearance change of the hydrogel was observed after the 24-day culture, and albumin production ability and expression levels of fibrosis markers were measured by RT-PCR.

[3] = test system: TGF-β1; experiment: K-HSC/HepaRG 1:1 in 4% hydrogel with TGF-β1 and inhibitor A, 18-day culture, liver fibrosis marker expression; format: cell-based, human; details: K-HSC/HepaRG 1:1, 4% hydrogel, 18 days
Description: Meanwhile, the K-HSC was encapsulated with the hepatic cell line HepaRG at a ratio of 1:1 in a 4% hydrogel and then 3D cultured, and the groups were divided into experimental groups to which TGF-β1, which is a fibrosis-inducing material, and inhibitor A thereof were added individually or simultaneously, and a control group to which TGF-β1 and inhibitor A were not added. The groups were cultured for 18 days, and then the cell network formation and expression differences of fibrosis markers in the liver analogs were confirmed.

[4] = test system: CYP3A4 enzyme

Molecule | CYP3A4 enzyme activity and function [1] | albumin degrading ability in the presence of TGF-β1 compared to control groups [2] | reactivity to TGF-β1 in expression of liver fibrosis markers [3] | CYP3A4 enzyme activity and function [4]
CN(Cc1cnc2nc(N)nc(N)c2n1)c1ccc(C(=O)N[C@@H](CCC(=O)O)C(=O)O)cc1 [MTX, methotrexate] | CYP3A4 enzyme activity and functional decrease were simulated |  |  | 
transforming growth factor beta 1 [TGF-β1] |  | deterioration | confirmed in all markers except smooth muscle actin alpha (α-SMA) and lysyl oxidase (LOX) | CYP3A4 enzyme activity and functional decrease were simulated
